Results published in patent publication US6949552B2, “Remedial agent for anxiety neurosis or depression and piperazine derivative” (Taisho Pharmaceutical Co., Ltd., priority 2000, dated 2005).
Structures can show the parent of a compound that is named as a salt.

Tests used:
human MC4 receptor = target: T1, human MC4 receptor (Homo sapiens, UniProt P32245); assay: MC4 receptor binding assay; conditions: HEK-293 cell membranes expressing human MC4 receptor; [125I]Nle4-D-Phe7-α-MSH 0.2 nM; 25° C., 120 minutes
T1 construct: purchased Biolinks Co; host or cells: HEK-293 cell membranes
T1 sequence (P32245 whole entry): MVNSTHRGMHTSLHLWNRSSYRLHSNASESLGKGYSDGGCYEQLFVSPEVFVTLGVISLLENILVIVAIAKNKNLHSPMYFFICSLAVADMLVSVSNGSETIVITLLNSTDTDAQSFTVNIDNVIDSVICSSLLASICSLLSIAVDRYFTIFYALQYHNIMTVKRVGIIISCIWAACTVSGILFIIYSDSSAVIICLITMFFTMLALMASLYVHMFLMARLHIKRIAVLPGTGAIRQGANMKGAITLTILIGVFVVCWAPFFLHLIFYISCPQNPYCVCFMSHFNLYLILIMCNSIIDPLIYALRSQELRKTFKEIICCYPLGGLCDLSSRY
Experimental: Experiment 1 [MC4 Receptor Binding Assay]
MC4 receptor binding assay was carried out according to the method described in Pharmacology & Taxicology, 79, 161-165, 1996, HEK-293 cell membranes expressing the human MC4 receptor were purchased from Biolinks Co. The cell membranes were homogenized in a 50 mM Tris hydrochloric acid buffer solution (pH 7.4) containing 2 mM ethylenediamine tetraacetic acid, 10 mM calcium chloride and 100 μM phenylmethanesulfonyl-fluoride. The homogenate was centrifuged at 48,000×g for 20 minutes at 4° C. The precipitate obtained by centrifugation was again homogenized in the same buffer solution, and the homogenate was centrifuged at 48,000×g for 20 minutes at 4° C. This procedure was repeated twice. The precipitate was suspended in 50 mM Tris hydrochloric acid buffer solution (pH 7.4) containing 2 mM ethylenediamine tetraacetic acid, 10 mM calcium chloride, 100 μM phenylmethanesulfonylfluoride and 0.1% bovine serum albumin to adjust to a protein concentration of 100 μg/ml to give a crude membrane preparation which was used for the binding assay. […] The radioactivity on the filter paper was measured in a gamma-counter. […] The IC50 value was calculated from the inhibition curve in the concentration range of 10^−9-10^−5.

[1] = system: recombinant human melanocortin receptors; assay: Antagonism in recombinant human melanocortin receptors
Male SD rats [2] = assay: Anti-anxiety action in forced swim stress-induced anxiety model of rats (elevated plus-maze test); type: in vivo, rat; conditions: subcutaneous 0.3 mg/kg, 1 mg/kg or 3 mg/kg, 30 minutes before 2-minute forced swim stress, 5-minute period, FIG. 3
Experimental: Anti-anxiety action of Compound 4 in Table 1 in forced swim stress-induced anxiety model of rats was studied.
Male SD rats weighing 220 to 240 g (Charles River Japan Inc.) were used. Rats were divided into 10 animals for each group. To rats of group to be administered with the test compound was subcutaneously administered the test compound which was prepared by dissolving a predetermined amount of the test drug in saline for injection and adding 0.5 M aqueous sodium hydroxide solution to adjust to pH 4-5. Thirty minutes after the administration, rats were exposed to a forced swim stress by placing in a black cylinder (20 cm internal diameter, 40 cm high) containing 25 cm deep of water maintained at 25° C. Duration of the forced swim stress was 2 minutes, and the anti-anxiety action was studied by the elevated plus-maze test, which was carried out 5 minutes after the forced swim stress.
The elevated plus-maze used for the test consisted of open arms (10 cm wide, 50 cm long) and close arms (10 cm wide, 50 cm long), and the open arms and the enclosed arms were covered with 1 cm-high and 40 cm-high transparent Plexiglas, respectively. The plus-maze was placed in 50 cm high from the floor. Luminosity at the center of the maze was 40 lux. […] The amount of time spent in open arms of the maze was recorded during a 5-minute period.

[3] = system: olfactory bulbectomized rats; assay: Anti-depressant action in olfactory bulbectomized rats (open field); type: in vivo, rat; conditions: subcutaneous 1 mg/kg, 3 mg/kg or 10 mg/kg once a day for 2 weeks; test 24 hours after final administration; 3 minutes; FIG. 4
From the text: Anti-depressant action of Compound 4 in Table 1 in olfactory bulbectomized rats was studied. Male SD rats weighing 220 to 240 g (Charles River Japan Inc.) were used. Rats were anesthetized with sodium pentobarbital, the olfactory bulbs were removed by suction using a metal pipe linked to a water aspirator. Two weeks after the removal of the olfactory bulbs, rats were divided into 10 to 11 animals for each group. The rats of one group were subcutaneously administered once a day for 2 weeks with the test drug which was prepared by dissolving a predetermined amount of the test drug in saline for injection and adding 0.5 M aqueous sodium hydroxide solution to adjust to pH 4-5. Twenty four hours after the final administration, the rats were placed in the center of a circular open field apparatus (70 cm diameter 25 blocks), and the number of crossings among blocks during 3 minutes was counted.

Male SD rats [4] = assay: Anti-anxiety action in Vogel test (Conflict test) in rats; type: in vivo, rat; conditions: subcutaneous 1 mg/kg, 3 mg/kg or 10 mg/kg, 30 minutes before test; electric shock 1.0 mA; 3 minutes; FIG. 2
Experimental: Anti-anxiety action of Compound 4 in Table 1 in Vogel test (Conflict test) in rats was studied.
Male SD rats weighing 220 to 240 g (Charles River Japan Inc.) were used. Rats deprived of drinking water for 48 hours were divided into 10 animals for each group. To rats of group to be administered with the test compound was subcutaneously administered the test compound which was prepared by dissolving a predetermined amount of Compound 4 in Table 1 in saline for injection and adding 0.5 M aqueous sodium hydroxide solution to adjust to pH 4-5. Thirty minutes after the administration, rats were placed in a apparatus for the test, and drinking behaviors during the time of free access to drinking water for 3 minutes were measured. During the time of free access to drinking water, an electric shock (1.0 mA) was released, every 2 seconds of cumulative licking time to the drinking nozzle. The evaluation of this experiment was carried out using the number of the electric shocks.

Male SD rats [5] = assay: Anxiogenic-like activity in Vogel test in rat (Proconflict test); type: in vivo; conditions: intracerebroventricular administration, 30 minutes before test; electric shock 0.4 mA; 3 minutes; FIG. 1
Experimental: Anxiogenic-like activity inducing action by α-MSH and MTII in Vogel test in rat (Proconflict test) was studied.
α-MSH and MTII were purchased from Peninsula Laboratories. Male SD rats weighing 220 to 240 g (Charles River Japan Inc.) were used for animals. Rats deprived of drinking water for 48 hours were divided into 5 animals for each group. The test compound was administered to rats intracerbroventricularly at 10 μl/2 min. of the test compound which was prepared by dissolving a predetermined amount of α-MSH or MTII in saline containing 0.1% bovine serum albumin. To control rats which were not administered test compound, saline containing 0.1% bovine serum albumin was administered intracerebroventricularly at 10 μl/2 min. Thirty minutes after the administration, rats were placed in a apparatus for the test, and drinking behaviors during the time of free access to drinking water for 3 minutes were measured. During the time of free access to drinking water, an electric shock (0.4 mA) was released, every 2 seconds of cumulative licking time to the drinking nozzle. The evaluation of this experiment was carried out using the number of the electric shocks.

Row | Compound | melting point [°C] | also measured
1 | N=C(N)N1CCN(C(CN2CCN(CCCCc3cccc4ccccc34)CC2)c2ccc(F)cc2)CC1.O=C(O)/C=C\C(=O)O.O=C(O)/C=C\C(=O)O.O=C(O)/C=C\C(=O)O (stereo not shown) | 171 to 173 | 
2 | CN1CCN(C(CN2CCN(CCCCc3cccc4ccccc34)CC2)c2ccc(N)cc2)CC1.O=C(O)/C=C\C(=O)O.O=C(O)/C=C\C(=O)O.O=C(O)/C=C\C(=O)O (stereo not shown) | 152 to 154 | 
3 | CN1CCN(C(CN2CCN(CCCCc3noc4cc(F)ccc34)CC2)c2ccc(F)cc2)CC1.O=C(O)/C=C\C(=O)O.O=C(O)/C=C\C(=O)O.O=C(O)/C=C\C(=O)O (stereo not shown) | 170 to 173 | 
4 | CC(C)Oc1ccc2ccccc2c1CCCCN1CCN(CC(c2ccc(F)cc2)N2CCN(C(C)C)CC2)CC1.O=C(O)/C=C\C(=O)O.O=C(O)/C=C\C(=O)O.O=C(O)/C=C\C(=O)O (stereo not shown) | 167 to 169 | 
5 | COc1ccc2ccccc2c1CCCCN1CCN(CC(c2ccc(F)cc2)C2CCN(C(C)C)CC2)CC1.Cl.Cl.Cl (stereo not shown) | 233 to 235 | 
6 | CN1CCC(O)(C(CN2CCN(CCCCc3cccc4ccccc34)CC2)c2ccc(F)cc2)CC1.Cl.Cl.Cl (stereo not shown) | 156 to 160 | 
7 | CN1CCN(C(CN2CCN(CCCCc3cccc4ccccc34)CC2)c2ccc(F)cc2)CC1 (single isomer, unassigned; (-)) [Compound 6, (−)-1-[2-(4-Fluorophenyl)-2-(4-methylpiperazino)ethyl]-4-[4-naphthalen-1-yl-butyl]piperazine hydrochloride] |  | IC50 (human MC4 receptor): 90 nM
8 | MTII |  | number of times of drinking water (number of the electric shocks) in comparison with the control group (Male SD rats [5]): dose-dependently, significantly decreased
9 | α-MSH (Ac-SYSMEHFRWGKPV-NH2; ends and bridges not checked; UniProt P01189 138-150, looked up) [melanocyte stimulating hormone (melanocortin produced from POMC), purchased from Peninsula Laboratories] |  | number of times of drinking water (number of the electric shocks) in comparison with the control group (Male SD rats [5]): dose-dependently, significantly decreased

Further lines, with some results ahead:

Row | melting point [°C] | Compound | also measured
10 | 127 to 129 | CC(C)N1CCN(C(CN2CCN(CCCCc3cccc4ccccc34)CC2)c2ccc(F)cc2)CC1.O=C(O)/C=C\C(=O)O.O=C(O)/C=C\C(=O)O.O=C(O)/C=C\C(=O)O (stereo not shown) | 
11 | 138 to 140 | COc1ccc(C(CN2CCN(CCCCc3cccc4ccccc34)CC2)N2CCN(C)CC2)cc1.O=C(O)/C=C\C(=O)O.O=C(O)/C=C\C(=O)O.O=C(O)/C=C\C(=O)O (stereo not shown) | 
12 | 193 to 195 | CN1CCN(C(CN2CCN(CCCCc3cccc4ccccc34)CC2)c2ccc(F)cc2)CC1.Cl (stereo not shown) | 
13 | 183 to 185 | COc1ccc2ccccc2c1CCCCN1CCN(CC(c2ccc(F)cc2)N2CCN(C(C)C)CC2)CC1.Cl.Cl.Cl.Cl (stereo not shown) | 
14 | 193 to 195 | CN1CCN(C(CN2CCN(CCCCc3cccc4ccccc34)CC2)c2ccc(F)cc2)CC1.Cl.Cl.Cl.Cl (stereo not shown) [Compound 4, 1-[2-(4-fluorophenyl)-2-(4-methylpiperazino)ethyl]-4-(4-naphthalen-1-yl-butyl)piperazine tetrahydrochloride] | action in recombinant human melanocortin receptors (selectivity) [1]: high selective antagonist; decreased amount of time spent in open arms after forced swim stress (Male SD rats [2]): significantly, dose-dependently antagonized; increased number of crossings among blocks in the open field [3]: significantly, dose-dependently antagonized; decreased number of times of drinking water (number of the electric shocks) caused by electric shock (Male SD rats [4]): significantly, dose-dependently antagonized; IC50 (human MC4 receptor): 164 nM
